{
  "source": "paper PMC9820303",
  "about": "“^αN-Acetyl β-Endorphin Is an Endogenous Ligand of σ1Rs That Regulates Mu-Opioid Receptor Signaling by Exchanging G Proteins for σ2Rs in σ1R Oligomers” (International Journal of Molecular Sciences, 2022)",
  "format_in_all_cases": "in vivo, mouse",
  "key": {"[1]": {"system": "NMDAR overactivation seizures in CD1 mice", "assay": "NMDA-induced seizures (1 nmol NMDA icv)", "conditions": "for effect on behavioral signs evoked by NMDA: 8 mice", "description": "(§1) Figure 1 ^αN-acetyl β-End 1–31 reduced ischemic brain damage and diminished seizures induced by NMDAR overactivation. Implication of σ1Rs. (A) ^αN-acetyl β-End 1–31 administration diminished ischemic brain damage in wild-type but not σ1R^−/− mice. Upper panel: representative 2,3,5-triphenyltetrazolium chloride (TTC)-stained brain section images obtained from saline- and drug-treated mice (3 nmol, 1 h after surgery) 48 h after pMCAO. White indicates infarction; red staining indicates normal tissue. Lower panel: the bar graphs quantitatively compare the infarct volume based on TTC staining from wild-type mice treated with saline, β-End 1–31 and the σ1R agonist PRE084 (white bars). The reducing effect of ^αN-acetyl β-End 1–31 was counteracted by β-End 1–31 and PRE084 (gray bars). In σ1R^−/− mice, the positive effect of ^αN-acetyl β-End 1–31 was not observed. […] Effects of PPCC, β-End 1–31 and ^αN-acetyl β-End 1–31 on seizures induced by NMDA in wild-type and σ1R^−/− mice. The mice received icv 1 nmol of the NMDAR agonist NMDA 30 min after the other drugs (3 nmol) and were then immediately evaluated. […] ANOVA followed by the Holm–Sidak multiple comparisons test, p < 0.05, 1-β > 0.80.\nSeizures were induced by injection of NMDA (1 nmol/mouse icv, in a volume of 4 μL sterile saline) as described by others. […] The seizure activity consisted of a mild myoclonic phase (immobility, mouth and facial movements, tail extension, circling), rearing (violent movements of the whole body, rearing), wild running (episodes of running with explosive jumps), clonic convulsions (characterized by rigidity of the whole body, including limb flexion/extension), followed by continuous/repetitive seizure activity (tonic seizures) and, in approximately 15–20% of the animals, death. The episode typically began a few seconds after injection and evolved to its maximal intensity in less than 1 min."}, "[2]": {"system": "pMCAO in CD1 mice (wild-type and σ1R−/−)", "assay": "Permanent unilateral middle cerebral artery occlusion (pMCAO), infarct size by TTC staining", "description": "as §1\nFocal cerebral ischemia was induced via pMCAO, as described previously. Briefly, mice were anesthetized and a vertical skin incision was made between the left eye and ear under a dissection microscope. After drilling a small hole in the cranium at the level of the distal portion of the middle cerebral artery, the artery was occluded by cauterization. Flow obstruction was visually verified. Animals showing subdural haemorrhages or signs of incorrect surgery were immediately excluded from the study (<5% in each group). The mice were returned to their cages after surgery, kept at room temperature, and allowed food and water ad libitum. Strong lesion reproducibility was observed. […] The investigator performing the pMCAO surgery was blinded to the treatment group. To determine the infarct size 48 h after surgery, animals were euthanized and their brains were removed, after which six 1 mm thick coronal brain slices (Brain Matrix, WPI, UK) were obtained. The sections were stained with 2,3,5-triphenyltetrazolium chloride (1% TTC, Merck-Sigma). Samples were taken from each side of all brain sections with a digital camera (Nikon Coolpix 990, Tokyo, Japan), and the extent of unstained infarct area (expressed in mm^2) was integrated from the total area as an orthogonal projection."}, "CCI CD1 mice": {"system": "CCI CD1 mice", "assay": "Chronic sciatic nerve constriction injury (CCI), mechanical allodynia, von Frey test", "description": "Implication of σ1Rs. […] Upper panel: the withdrawal thresholds of the contralateral and ipsilateral paws were measured before (indicated as 0) and up to 14 days after surgery. […] Middle panel: 0.3 and 3 nmol of ^αN-acetyl β-End 1–31 were administered icv 7 days after surgery, and the nociceptive threshold was evaluated at the indicated postinjection intervals (in minutes). For every time interval studied in min or days, * indicates a significant difference from the group that received saline instead of ^αN-acetyl β-End 1–31; ϕ significant difference from the effect of 3 nmol ^αN-acetyl β-End 1–31. […] All data are presented as the mean ± SD of six mice. ANOVA followed by the Holm–Sidak multiple comparisons test, p < 0.05, 1-β > 0.80. […] Upper panel: wild-type mice were injected icv with saline, ^αN-acetyl β-End 1–31 (1 nmol/mouse) or the combination of the σ1R agonist PPCC (3 nmol/mouse) plus ^αN-acetyl β-End 1–31 20 min before morphine and β-End 1–31. Analgesia was evaluated by the warm water (52 °C) tail-flick test at the interval postinjection corresponding to their peak effect, 30 min. Lower panel: σ1R^−/− mice received 1 nmol ^αN-acetyl β-End 1–31, 20 min before morphine and β-End 1–31 and analgesia was evaluated as described above. Eight mice were used per strain and treatment. * Significant difference with respect to the group treated with morphine or β-End 1–31 alone. ANOVA followed by the Holm–Sidak multiple comparisons test, p < 0.05, 1-β > 0.80.\nAfter the basal mechanical sensitivity of the mice was tested, neuropathic pain was induced by chronic sciatic nerve constriction injury (CCI) surgery under isoflurane/oxygen anesthesia using the procedure described by Bennett and Xie with modifications. Briefly, a 0.5 cm incision was made in the right midthigh, the biceps femoris muscle was separated, and the sciatic nerve was exposed proximal to its trifurcation. Two ligatures (5/0 braided silk suture; Lorca Marin, Murcia, Spain, 70,014) were tied around this nerve approximately 1 mm apart until a short flick of the ipsilateral hind limb was observed. The incision was then closed in layers with a 4–0 Ethicon silk suture. The same procedure was used for sham surgery, except that the sciatic nerve was exposed but not ligated. The tactile pain threshold of both the ipsilateral and contralateral hind paws was then assessed before and on different days post-surgery. The mice were individually placed in a transparent plastic cage with a wire-mesh bottom that allowed full access to the paws. After a habituation period of 20 min, a mechanical stimulus was delivered to the plantar surface from below the floor of the test chamber to measure allodynia using an automatic von Frey apparatus (Ugo Basile #37,450, Comerio, Italy). A steel rod (0.5 mm diameter) was pushed against the hind paw over a 10 s period as the force increased from 0 to 10 g. When the mouse withdrew its hind paw, the mechanical stimulus was automatically stopped, and the force at which withdrawal occurred was recorded. At each time point, three separate threshold measurements were obtained from each hind paw and then averaged."}, "MOR": {"system": "MOR", "sequence (P42866 whole entry)": "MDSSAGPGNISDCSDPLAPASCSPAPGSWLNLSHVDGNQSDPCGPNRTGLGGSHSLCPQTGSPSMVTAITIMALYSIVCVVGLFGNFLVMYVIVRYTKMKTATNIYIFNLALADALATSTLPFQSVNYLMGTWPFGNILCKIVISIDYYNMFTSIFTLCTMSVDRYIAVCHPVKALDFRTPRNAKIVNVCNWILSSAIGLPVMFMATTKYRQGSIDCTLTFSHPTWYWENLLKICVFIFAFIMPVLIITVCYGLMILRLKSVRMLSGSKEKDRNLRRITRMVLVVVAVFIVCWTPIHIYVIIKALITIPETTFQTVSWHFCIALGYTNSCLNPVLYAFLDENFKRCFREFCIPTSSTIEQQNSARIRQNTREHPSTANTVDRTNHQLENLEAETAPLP", "assay": "Coprecipitation of G proteins, σ2Rs and NMDAR NR1 C1 with PAG MORs after icv injection", "conditions": "60 min post-treatment; for effect on association of PAG MOR with G proteins, σ2Rs and NR1 C1: icv: β-End 1–31 5 pmol, ^αN-acetyl β-End 1–31 5 pmol, S1RA 3 nmol, n = 3", "from_the_text": "The data from σ2R^−/− solubilized cortical tissue were referred to the wild-type control (arbitrary value of 1). […] For each Gα subunit and the σ1R, the immunosignals in the absence of the acetylated peptide were the controls (C, value of 1). […] (D) Coprecipitation of G proteins with MORs in CD1 wild-type and σ2R^−/− mice. MORs were immunoprecipitated (IP) from mouse SBM. Coprecipitated proteins were detached from MORs and analyzed by Western blotting with antibodies directed to Gαi2, Gαo, Gαz and MOR proteins. (E) Effect of in vivo icv injection of β-End 1–31, ^αN-acetyl β-End 1–31 and S1RA on the association of PAG MORs with G proteins, σ2Rs and NMDAR NR1 C1 subunits. β-End 1–31 (5 pmol), ^αN-acetyl β-End 1–31 (5 pmol) and S1RA (3 nmol and 10 nmol) were icv-injected, and the mice were sacrificed 60 min post-treatment to obtain the PAG synaptosomal fraction. The MORs were immunoprecipitated from the solubilized membrane preparations, and the coprecipitated target proteins were analyzed by Western blotting. […] Representative blots are shown. The immunosignal provided by the light chain of the affinity-purified anti MOR IgGs was used as SDS-PAGE loading control. […] Data were analyzed by pairwise Holm–Sidak multiple comparison tests following ANOVA: p < 0.05, 1-β > 0.80.\nIn immunoprecipitation studies, the cerebral cortices or periaqueductal grey matter (PAG) from 4–6 mice are typically pooled, as described previously [89]. […] The software automatically calculates the optimal exposure time for each of the areas specified to provide the strongest possible signal for accurate quantification of the sample. Protein immunosignals were measured using the area of the strongest signal for each group of samples studied (average optical density of the pixels within the object area/mm^2; AlphaEase FC software); the grey values of the means were then normalized within the 8 bit/256 grey levels [(256 − computed value)/computed value]."}, "[3]": {"conditions": "3 nmol icv 30 min before 1 nmol NMDA icv, wild-type mice"}},
  "data": [
    {"compound": "COC(=O)[C@]1(c2ccc(C)cc2)C[C@@H]1CN1CCC(O)(c2ccccc2)CC1", "note": "[PPCC, (1R,2S/1S,2R)-2-[4-hydroxy-4-phenylpiperidin-1-yl)methyl]-1-(4-methylphenyl) cyclopropanecarboxylate, reference compound]", "values": [
      {"measurement": "effect on behavioral signs evoked by NMDA", "setting": "[1]; [3]", "result": "did not significantly alter the behavioral effects"},
      {"measurement": "effect on the anticonvulsant action of ^αN-acetyl β-End 1–31", "setting": "[1]; 3 nmol icv with ^αN-acetyl β-End 1–31, wild-type mice", "result": "prevented ^αN-acetyl β-End 1–31 from alleviating these signs"}
    ]},
    {"compound": "Cl.O=C(OCCN1CCOCC1)C1(c2ccccc2)CCCCC1", "note": "[PRE084, 2-(4-morpholinethyl)-1-phenylcyclohexanecarboxylate hydrochloride, reference compound]", "values": [
      {"measurement": "effect on the neuroprotection provided by ^αN-acetyl β-End 1–31", "setting": "[2]; given with ^αN-acetyl β-End 1–31 (3 nmol icv), wild-type mice", "result": "prevented the neuroprotection"},
      {"measurement": "effect on infarct volume, given alone", "setting": "[2]; icv 60 min postsurgery (3 nmol), 48 h after pMCAO, wild-type mice", "result": "did not alter the extent of infarct volume"},
      {"measurement": "effect on the antiallodynic action of ^αN-acetyl β-End 1–31", "setting": "CCI CD1 mice; 3 nmol icv together with 3 nmol ^αN-acetyl β-End 1–31", "result": "prevented the β-End 1–31 ^αN-acetyl derivative from diminishing the response of CCI mice in the von Frey test"}
    ]},
    {"compound": "Cc1cc(OCCN2CCOCC2)nn1-c1ccc2ccccc2c1", "note": "[S1RA]", "values": [
      {"measurement": "effect on association of PAG MOR with G proteins and σ2Rs, 10 nmol", "setting": "MOR; 10 nmol icv", "result": "increased MOR association with Gi2/o and σ2Rs"},
      {"measurement": "effect on association of PAG MOR with G proteins, σ2Rs and NR1 C1", "setting": "MOR", "result": "slightly reproduced"}
    ]},
    {"compound": "^αN-acetyl β-End 1–31: β-End 1–31 acetylated at N terminal Y1, α position", "values": [
      {"measurement": "infarct volume", "setting": "[2]; 3 nmol icv 60 min postsurgery, 48 h after pMCAO, wild-type mice, mean ± SD, 5 to 8 mice, SD", "result": "1.2 ± 0.9 % of the total brain volume"},
      {"measurement": "reduction in the infarct size", "setting": "[2]; 3 nmol icv 60 min postsurgery, 48 h after pMCAO, wild-type mice, untreated infarct 5.4 ± 1.2% of total brain volume", "result": "~80", "unit": "%"},
      {"measurement": "protective effect on pMCAO-produced ischemia in σ1R−/− mice", "setting": "[2]; σ1R−/− mice, 3 nmol icv", "result": "did not exhibit protective effects"},
      {"measurement": "effect on clonic convulsions and tonic seizures", "setting": "[1]; [3]", "result": "only a tendency to diminish clonic convulsions and tonic seizures"},
      {"measurement": "effect on behavioral signs evoked by NMDA", "setting": "[1]; [3]", "result": "partially protected the mice from hypermobility and convulsive rearing"},
      {"measurement": "anticonvulsant effects in σ1R−/− mice", "setting": "[1]; σ1R−/− mice, 3 nmol icv", "result": "absent"},
      {"measurement": "effect on mechanical allodynia, 0.3 nmol", "setting": "CCI CD1 mice; 0.3 nmol icv 7 days after CCI surgery, von Frey, 6 mice", "result": "significantly reduced mechanical allodynia"},
      {"measurement": "effect on mechanical allodynia, 3 nmol", "setting": "CCI CD1 mice; 3 nmol icv 7 days after CCI surgery, von Frey, 6 mice", "result": "practically restored the von Frey response to the levels observed presurgery"},
      {"measurement": "duration of clear protection", "setting": "CCI CD1 mice; higher dose (3 nmol icv), partial protection for an additional 24 h", "result": 24, "unit": "h"},
      {"measurement": "time after icv administration at which the beneficial effect was observed", "setting": "CCI CD1 mice; icv, 7 days after CCI surgery", "result": "10 to 15", "unit": "min"},
      {"measurement": "effect on association of PAG MOR with G proteins, σ2Rs and NR1 C1", "setting": "MOR", "result": "slightly reproduced"}
    ]}
  ]
}
